Measurements from patent publication US20230159527A1, “COMPOUNDS AS BCL-2 INHIBITORS” (Fochon Pharmaceuticals, Ltd., priority 2020, published 2023).
pIC50: −log10 of the molar value.

Key:
Assay type in all cases: cell-based
Toledo cells = assay: Cell proliferation assay, Toledo cells (MTS, 72 h); conditions: Homo sapiens, Toledo cells, MTS, read-out: Toledo IC50
Method in brief: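 Toledo cells (30000/well, RPMI-1640 with 10% FBS) were preincubated for 4 h. They were then exposed to nine compound concentrations from 10000 to 1.5 nM for 72 h at 37 °C, 5% CO2. MTS was added for 2 h and absorbance read at 490 nm to give IC50.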

RS4;11-BCL-2 G101V cells = assay: Cell proliferation assay, engineered RS4;11 cells stably overexpressing BCL-2 G101V (MTS, 168 h); conditions: Homo sapiens, RS4-11, 168 h, read-out: RS4, 11 BCL2- G101V
Description: (§1) MTS testing kit was purchased from Promega (Madison, Wis., USA). The RPMI-1640, Fetal bovine serum and Penicillin-Streptomycin were purchased from BI (Biological Industries, Beit Haemek, Israel). Puromycin was purchased from Beyotime (shanghai, China). Dimethyl sulfoxide (DMSO) was purchased from Sigma (St. Louis, Mo., USA). RS4;1l-BCL-2 G101V and RS4;11-BCL-2 F104L cells were cultured in RPM11640 supplemented with 1 ug/mL puromycin, 100 U/mL Penicillin-Streptomycin and 10% FBS.
(§2) To investigate whether a compound is able to inhibit the activity of BCL-2 mutation in cells, a mechanism-based assay using engineered cell lines stably overexpressing BCL-2 mutation ([…] and […]) was developed. In this assay, the inhibition of BCL-2 mutation was reflected by the inhibition of cell proliferation of RS4;11-BCL-2 G101V and RS4;11-BCL-2 F104L cells. Cells were plated into 96-well plates at optimized cell density (RS4;11-BCL-2 G101V: 5000 cells/well; RS4;11-BCL-2 F104L: 5000 cells/well). Plates were incubated at 37° C., with 5% CO2 for 4 h. Compounds were serially diluted to the final-concentrations of 10000, 3333.3, 1111.1, 370.4, 123.5, 41.2, 13.7, 4.6 and 1.4 nM and added to the plates. Plates were incubated at 37° C., with 5% CO2 for 168 h. 20 μl MTS was added into each well and the plates were incubated at 37° C., with 5% CO2 exactly for 2 h. The absorbance was measured by a microplate reader at 490 nm. IC50 values were calculated using GraphPad Prism 5.0 software.

RS4;11-BCL-2 F104L cells = assay: Cell proliferation assay, engineered RS4;11 cells stably overexpressing BCL-2 F104L (MTS, 168 h); conditions: Homo sapiens, read-out: RS4, 11 BCL2-F104L
Description: as §1, §2

Structure (SMILES)	pIC50 (Toledo cells)	pIC50 (RS4;11-BCL-2 G101V cells)	pIC50 (RS4;11-BCL-2 F104L cells)
CC(C)c1ccccc1[C@@H]1CN(C(=O)C2CC2)CCN1C1CC2(CCN(c3ccc(C(=O)NS(=O)(=O)c4cc5c(c([N+](=O)[O-])c4)N[C@@H]([C@H]4CC[C@](C)(O)CC4)CO5)c(Oc4cnc5[nH]cc(F)c5c4)c3)CC2)C1 (single isomer, unassigned) [Example D-82, 4-(2-((R or S)-4-(cyclopropanecarbonyl)-2-(2-isopropylphenyl)piperazin-1-yl)-7-azaspiro[3.5]nonan-7-yl)-2-((3-fluoro-1H-pyrrolo[2,3-b]pyridin-5-yl)oxy)-N-(((S)-3-((1r,4S)-4-hydroxy-4-methylcyclohexyl)-5-nitro-3,4-dihydro-2H-benzo[b][1,4]oxazin-7-yl)sulfonyl)benzamide]	9.00	7.72	
COCCOc1nc2[nH]ccc2cc1Oc1cc(N2CCC3(CC2)CN([C@H]2CCC[C@H]2c2ccccc2C(C)C)C3)ccc1C(=O)NS(=O)(=O)c1cc2c(c([N+](=O)[O-])c1)N[C@@H]([C@H]1CC[C@](C)(O)CC1)CO2 (racemic) [Example D-75a, N-(((S)-3-((1r,4S)-4-hydroxy-4-methylcyclohexyl)-5-nitro-3,4-dihydro-2H-benzo[b][1,4]oxazin-7-yl)sulfonyl)-4-(2-((1S,2S and 1R,2R)-2-(2-isopropylphenyl)cyclopentyl)-2,7-diazaspiro[3.5]nonan-7-yl)-2-((6-(2-methoxyethoxy)-1H-pyrrolo[2,3-b]pyridin-5-yl)oxy) benzamide]	9.00	8.40	
Cc1nc2[nH]cc(F)c2cc1Oc1cc(N2CCC3(CC2)CN([C@H]2CCC[C@H]2c2ccccc2C(C)C)C3)ccc1C(=O)NS(=O)(=O)c1ccc(NC[C@H]2CC[C@](C)(O)CC2)c([N+](=O)[O-])c1 (single isomer, unassigned) [Example D-234, 2-((3-fluoro-6-methyl-1H-pyrrolo [2,3-b]pyridin-5-yl)oxy)-N-((4-((((1r,4r)-4-hydroxy-4-methylcyclohexyl)methyl)amino)-3-nitrophenyl)sulfonyl)-4-(2-((1S,2S or 1R,2R)-2-(2-isopropylphenyl)cyclopentyl)-2,7-diazaspiro[3.5]nonan-7-yl)benzamide]	9.00		8.10
COc1nc2[nH]ccc2cc1Oc1cc(N2CCC3(CC2)CC(N2CCC[C@H]2c2ccccc2C(C)C)C3)ccc1C(=O)NS(=O)(=O)c1cc2c(c([N+](=O)[O-])c1)N[C@@H]([C@H]1CC[C@](C)(O)CC1)CO2 (single isomer, unassigned) [Example D-10, N-(((S)-3-((1r,4S)-4-hydroxy-4-methylcyclohexyl)-5-nitro-3,4-dihydro-2H-benzo[b][1,4]oxazin-7-yl)sulfonyl)-4-(2-((R or S)-2-(2-isopropylphenyl)pyrrolidin-1-yl)-7-azaspiro[3.5]nonan-7-yl)-2-((6-methoxy-1H-pyrrolo [2,3-b]pyridin-5-yl)oxy)benzamide]	9.00		7.47
CC(C)c1ccccc1[C@@H]1CCC[C@@H]1N1CC2(CCN(c3ccc(C(=O)NS(=O)(=O)c4cc5c(c([N+](=O)[O-])c4)N[C@@H]([C@H]4CC[C@](C)(O)CC4)CO5)c(Oc4cc5cc[nH]c5nc4F)c3)CC2)C1 (single isomer, unassigned) [Example D-117, 2-((6-fluoro-1H-pyrrolo[2,3-b]pyridin-5-yl)oxy)-N-(((S)-3-((1r,4S)-4-hydroxy-4-methylcyclohexyl)-5-nitro-3,4-dihydro-2H-benzo[b] [1,4]oxazin-7-yl)sulfonyl)-4-(2-((1S,2S or 1R,2R)-2-(2-isopropylphenyl)cyclopentyl)-2,7-diazaspiro[3.5]nonan-7-yl)benzamide]	9.00		9.00
CC(C)c1ccccc1[C@@H]1CCCN1C1CC2(CCN(c3ccc(C(=O)NS(=O)(=O)c4cc5c(c([N+](=O)[O-])c4)N[C@@H]([C@H]4CC[C@](C)(O)CC4)CO5)c(Oc4cc5cc[nH]c5nc4OC[C@H]4COCCO4)c3)CC2)C1 (single isomer, unassigned) [Example D-252, 2-((6-(((R)-1,4-dioxan-2-yl)methoxy)-1H-pyrrolo[2,3-b]pyridin-5-yl)oxy)-N-(((S)-3-((1r,4S)-4-hydroxy-4-methylcyclohexyl)-5-nitro-3,4-dihydro-2H-benzo[b][1,4]oxazin-7-yl)sulfonyl)-4-(2-((R or S)-2-(2-isopropylphenyl)pyrrolidin-1-yl)-7-azaspiro[3.5]nonan-7-yl)benzamide]	9.00		9.00
Cc1nc2[nH]cc(F)c2cc1Oc1cc(N2CCC3(CC2)CN([C@H]2CCC[C@H]2c2ccccc2C(C)C)C3)ccc1C(=O)NS(=O)(=O)c1cnc(NC[C@H]2CC[C@](C)(O)CC2)c([N+](=O)[O-])c1 (single isomer, unassigned) [Example A-156, 2-((3-fluoro-6-methyl-1H-pyrrolo[2,3-b]pyridin-5-yl)oxy)-N-((6-((((1r,4r)-4-hydroxy-4-methylcyclohexyl)methyl)amino)-5-nitropyridin-3-yl)sulfonyl)-4-(2-((1S,2S or 1R,2R)-2-(2-isopropylphenyl)cyclo-pentyl)-2,7-diazaspiro[3.5]nonan-7-yl) benzamide]	9.00		7.80
COc1nc2[nH]cc(F)c2cc1Oc1cc(N2CCC3(CC2)CC(N2CCC[C@H]2c2ccccc2C(C)C)C3)ccc1C(=O)NS(=O)(=O)c1cc2c(c([N+](=O)[O-])c1)N[C@@H]([C@H]1CC[C@](C)(O)CC1)CO2 (single isomer, unassigned) [Example D-83, 2-((3-fluoro-6-methoxy-1H-pyrrolo [2,3-b]pyridin-5-yl)oxy)-N-(((S)-3-((1r,4S)-4-hydroxy-4-methylcyclohexyl)-5-nitro-3,4-dihydro-2H-benzo[b][1,4]oxazin-7-yl)sulfonyl)-4-(2-((R or S)-2-(2-isopropylphenyl)pyrrolidin-1-yl)-7-azaspiro[3.5]nonan-7-yl)benzamide]	9.00		8.10
Cc1nc2[nH]cc(F)c2cc1Oc1cc(N2CCC3(CC2)CC(N2CCC[C@H]2c2ccccc2C(C)C)C3)ccc1C(=O)NS(=O)(=O)c1cc2c(c([N+](=O)[O-])c1)N[C@@H]([C@H]1CC[C@](C)(O)CC1)CO2 (single isomer, unassigned) [Example D-244, 2-((3-fluoro-6-methyl-1H-pyrrolo [2,3-b]pyridin-5-yl)oxy)-N-(((S)-3-((1r,4S)-4-hydroxy-4-methylcyclohexyl)-5-nitro-3,4-dihydro-2H-benzo[b][1,4]oxazin-7-yl)sulfonyl)-4-(2-((R or S)-2-(2-isopropylphenyl)pyrrolidin-1-yl)-7-azaspiro[3.5]nonan-7-yl)benzamide]	9.00		9.00
COc1nc2[nH]cc(F)c2cc1Oc1cc(N2CCC3(CC2)CN([C@H]2CCC[C@H]2c2ccccc2C(C)C)C3)ccc1C(=O)NS(=O)(=O)c1ccc(NC[C@H]2CC[C@](C)(O)CC2)c([N+](=O)[O-])c1 (single isomer, unassigned) [Example D-109, 2-((3-fluoro-6-methoxy-1H-pyrrolo [2,3-b]pyridin-5-yl)oxy)-N-((4-((((1r,4r)-4-hydroxy-4-methylcyclohexyl)methyl)amino)-3-nitrophenyl)sulfonyl)-4-(2-((1S,2S or 1R,2R)-2-(2-isopropylphenyl)cyclopentyl)-2,7-diazaspiro[3.5]nonan-7-yl)benzamide]	9.00		8.10
CCOc1nc2[nH]cc(F)c2cc1Oc1cc(N2CCC3(CC2)CN([C@H]2CCC[C@H]2c2ccccc2C(C)C)C3)ccc1C(=O)NS(=O)(=O)c1ccc(NC[C@H]2CC[C@](C)(O)CC2)c([N+](=O)[O-])c1 (single isomer, unassigned) [Example D-110, 2-((6-ethoxy-3-fluoro-1H-pyrrolo [2,3-b]pyridin-5-yl)oxy)-N-((4-((((1r,4r)-4-hydroxy-4-methylcyclohexyl)methyl)amino)-3-nitrophenyl)sulfonyl)-4-(2-((1S,2S or 1R,2R)-2-(2-isopropylphenyl)cyclopentyl)-2,7-diazaspiro[3.5]nonan-7-yl)benzamide]	9.00		7.82
